Measured values reported in PubChem BioAssay (NCI).
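Method: 48-hour compound exposure of cells in 96-well plates, five concentrations, linear interpolation of endpoints. TGI marks complete inhibition of growth.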

Experiments:
Assay in all cases: NCI tumour cell line growth inhibition, 48 h
P388/ADR leukemia = tested on: P388/ADR leukemia
P388 leukemia = tested on: P388 leukemia
KM20L2 colon = tested on: KM20L2 colon
NCI/ADR-RES ovarian = tested on: NCI/ADR-RES ovarian
SN12K1 renal = tested on: SN12K1 renal
DMS 114 small cell lung = tested on: DMS 114 small cell lung
MDA-N = tested on: MDA-N
MDA-MB-231 breast = tested on: MDA-MB-231 breast
MDA-MB-435 = tested on: MDA-MB-435
PC-3 prostate = tested on: PC-3 prostate

| Structure (SMILES) | TGI (P388/ADR leukemia) [µM] | TGI (P388 leukemia) [µM] | TGI (KM20L2 colon) [µM] | TGI (NCI/ADR-RES ovarian) [µM] | TGI (SN12K1 renal) [µM] | TGI (DMS 114 small cell lung) [µM] | TGI (MDA-N) [µM] | TGI (MDA-MB-231 breast) [µM] | TGI (MDA-MB-435) [µM] | TGI (PC-3 prostate) [µM] |
| --- | --- | --- | --- | --- | --- | --- | --- | --- | --- | --- |
| NC(=S)N/N=C/c1ccc(OC(=O)COc2ccccc2Cl)cn1 | 20.7 | 13.4 | > 100 | 59.3 | > 100 |  |  |  |  |  |
| COc1cc(Cc2ccc3c(c2C#N)N(C)c2ccccc2S3)cc(OC)c1OC |  |  | > 100 |  |  | > 100 |  |  |  |  |
| CCOC(=O)C(=O)Nc1cccc(C)c1C |  |  | > 100 |  |  | > 100 |  |  |  |  |
| BrC1=CN2C[n+]3cc(Br)c4ccccc4c3N=C2c2ccccc21 |  |  |  | > 100 |  |  | 21.4 | 34.6 | 19.2 | 33.9 |
| COC(=O)C1=C(O)C(C(=O)OC)[C@@]2(O)[C@@H](C(=O)OC)CC[C@@H]1[C@@H]2C(=O)OC (stereo not given in full) |  |  |  |  |  |  |  | 83.5 | > 100 |  |
| CCOC(=O)/C(=N/Nc1ccc(Cl)cc1)N1C(=S)C=C(C)NN(C)C1=S |  |  |  | > 100 |  |  |  | > 100 | > 100 |  |
| COc1cc(C2S/C(=C/c3ccccc3)C(=O)N2c2ccccc2Cl)cc(OC)c1OC (stereo not given) |  |  |  | 94.7 |  |  | 84.6 | 67.3 | 56.7 | 58.2 |
| C/C([O-])=C(/c1nc(-c2ccc([N+](=O)[O-])o2)no1)[n+]1cc(C)ccc1C | > 100 | > 100 | 27.5 | > 100 | 28.6 | 38.9 |  |  |  |  |
